Test results reported in paper PMC10600247, “Impact of C- and N-terminal protection on the stability, metal chelation and antimicrobial properties of calcitermin” (Scientific Reports, 2023).
Residues, ends and D or L forms follow the SMILES beside them.

What was measured:
C. albicans (ATCC 10231) = test: In vitro antifungal CFU assay; type: cell-based, Candida albicans; conditions: pH 5.4; for mean CFU number ± S.D.: per 0.1 mL
Outline: (§1)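 Peptides (final 0.128, 0.064, 0.032 mg/mL), alone or with ZnCl2 or CuCl2 at M:L 0.9:1, were incubated with 10^3 CFU/well in PBS pH 5.4 plus 1.5% TSB at 37 °C with slow rocking for 3 and 24 h. Aliquots were plated on TSA and CFU counted after 24 h; triplicate.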

in vitro = conditions: human, pH 7.4
Outline: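 Peptides (1·10^–4 M) or their 1:1 metal complexes incubated at 37 °C in pooled human plasma diluted 1:1 with ammonium acetate buffer pH 7.4, with L-phenylalaninol internal standard. Aliquots taken at intervals, quenched with HClO4 and centrifuged; supernatants analysed by C18 reverse-phase HPLC with UV detection at 210 nm.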

E. coli (ATCC 25922) = test: In vitro anti-E. coli CFU assay; type: cell-based, Escherichia coli; conditions: pH 5.4; for mean CFU number ± S.D.: per 0.1 mL
Outline: as §1

[1] = peptide 0.032 mg/mL + CuCl2 (0.9:1), 3 h
[2] = peptide 0.032 mg/mL + CuCl2 (0.9:1), 24 h
[3] = peptide 0.032 mg/mL + ZnCl2 (0.9:1), 3 h
[4] = peptide 0.032 mg/mL + ZnCl2 (0.9:1), 24 h
[5] = peptide 0.064 mg/mL + CuCl2 (0.9:1), 3 h
[6] = peptide 0.064 mg/mL + CuCl2 (0.9:1), 24 h
[7] = peptide 0.064 mg/mL + ZnCl2 (0.9:1), 3 h
[8] = peptide 0.064 mg/mL + ZnCl2 (0.9:1), 24 h
[9] = peptide 0.128 mg/mL + CuCl2 (0.9:1), 3 h
[10] = peptide 0.128 mg/mL + CuCl2 (0.9:1), 24 h
[11] = peptide 0.128 mg/mL + ZnCl2 (0.9:1), 3 h, listed as WT calcitermin
[12] = peptide 0.128 mg/mL + ZnCl2 (0.9:1), 3 h
[13] = peptide 0.128 mg/mL + ZnCl2 (0.9:1), 24 h
[14] = peptide alone 0.032 mg/mL, 24 h
[15] = peptide alone 0.064 mg/mL, 24 h
[16] = peptide alone 0.128 mg/mL, 24 h

## CC[C@H](C)[C@H](NC(=O)[C@H](C)NC(=O)[C@@H](N)C(C)C)C(=O)N[C@@H](C)C(=O)N[C@@H](CC(C)C)C(=O)N[C@@H](CCCCN)C(=O)N[C@@H](C)C(=O)N[C@@H](C)C(=O)N[C@@H](Cc1c[nH]cn1)C(=O)N[C@@H](Cc1ccc(O)cc1)C(=O)N[C@@H](Cc1c[nH]cn1)C(=O)N[C@H](C(=O)N[C@@H](Cc1c[nH]cn1)C(=O)N[C@@H](CCCCN)C(=O)N[C@@H](CCC(=O)O)C(=O)O)[C@@H](C)O [WT, VAIALKAAHYHTHKE, reference compound] (H-VAIALKAAHYHTHKE-OH)
C. albicans (ATCC 10231); [1]
  CFU decrease/increase with respect to untreated controls: -12%
  mean CFU number ± S.D.: 74 ± 28 CFU
C. albicans (ATCC 10231); [2]
  CFU decrease/increase with respect to untreated controls: -0.4%
  mean CFU number ± S.D.: 1,771 ± 309 CFU
C. albicans (ATCC 10231); [3]
  CFU decrease/increase with respect to untreated controls: -20%
  mean CFU number ± S.D.: 67 ± 35 CFU
C. albicans (ATCC 10231); [4]
  CFU decrease/increase with respect to untreated controls: -31%
  mean CFU number ± S.D.: 1,235.8 ± 235 CFU
C. albicans (ATCC 10231); [5]
  CFU decrease/increase with respect to untreated controls: +1%
  mean CFU number ± S.D.: 85 ± 24 CFU
C. albicans (ATCC 10231); [6]
  CFU decrease/increase with respect to untreated controls: -16%
  mean CFU number ± S.D.: 1,489 ± 111 CFU
C. albicans (ATCC 10231); [7]
  CFU decrease/increase with respect to untreated controls: -43%
  mean CFU number ± S.D.: 48.3 ± 22 CFU
C. albicans (ATCC 10231); [8]
  CFU decrease/increase with respect to untreated controls: -58%
  mean CFU number ± S.D.: 754.3 ± 323 CFU
C. albicans (ATCC 10231); [9]
  CFU decrease/increase with respect to untreated controls: -35%
  mean CFU number ± S.D.: 55 ± 11 CFU
C. albicans (ATCC 10231); [10]
  CFU decrease/increase with respect to untreated controls: -0.6%
  mean CFU number ± S.D.: 1,790 ± 393 CFU
C. albicans (ATCC 10231); [11]
  CFU decrease/increase with respect to untreated controls: -49%
C. albicans (ATCC 10231); [12]
  mean CFU number ± S.D.: 42.7 ± 11 CFU
C. albicans (ATCC 10231); peptide 0.128 mg/mL + ZnCl2 (0.9:1), 24 h, listed as WT calcitermin
  CFU decrease/increase with respect to untreated controls: -96%
C. albicans (ATCC 10231); [13]
  mean CFU number ± S.D.: 62.8 ± 33 CFU
C. albicans (ATCC 10231); peptide alone 0.032 mg/mL, 3 h, listed as WT calcitermin
  CFU decrease/increase with respect to untreated controls: -67%
C. albicans (ATCC 10231); peptide alone 0.032 mg/mL, 3 h
  mean CFU number ± S.D.: 28 ± 15 CFU
C. albicans (ATCC 10231); [14]
  CFU decrease/increase with respect to untreated controls: -24%
  mean CFU number ± S.D.: 1,348± 698 CFU
C. albicans (ATCC 10231); peptide alone 0.064 mg/mL, 3 h, listed as WT calcitermin
  CFU decrease/increase with respect to untreated controls: -67%
C. albicans (ATCC 10231); peptide alone 0.064 mg/mL, 3 h
  mean CFU number ± S.D.: 28 ± 15 CFU
C. albicans (ATCC 10231); [15]
  CFU decrease/increase with respect to untreated controls: -33%
  mean CFU number ± S.D.: 1,289 ± 495 CFU
C. albicans (ATCC 10231); peptide alone 0.128 mg/mL, 3 h, listed as WT calcitermin
  CFU decrease/increase with respect to untreated controls: -73%
C. albicans (ATCC 10231); peptide alone 0.128 mg/mL, 3 h
  mean CFU number ± S.D.: 22.4 ± 15 CFU
C. albicans (ATCC 10231); [16]
  CFU decrease/increase with respect to untreated controls: -41%
  mean CFU number ± S.D.: 1,052 ± 531 CFU
In vitro
  half-life: 18 ± 3 min
E. coli (ATCC 25922); peptide 0.032 mg/mL + CuCl2 (0.9:1), 3 h, listed as WT calcitermin
  CFU decrease/increase with respect to untreated controls: -38%
E. coli (ATCC 25922); [1]
  mean CFU number ± S.D.: 505 ± 26 CFU
E. coli (ATCC 25922); [2]
  CFU decrease/increase with respect to untreated controls: -21%
  mean CFU number ± S.D.: 191 ± 23 CFU
E. coli (ATCC 25922); peptide 0.032 mg/mL + ZnCl2 (0.9:1), 3 h, listed as WT calcitermin
  CFU decrease/increase with respect to untreated controls: -38%
E. coli (ATCC 25922); [3]
  mean CFU number ± S.D.: 499 ± 104 CFU
E. coli (ATCC 25922); [4]
  CFU decrease/increase with respect to untreated controls: -7%
  mean CFU number ± S.D.: 224 ± 8 CFU
E. coli (ATCC 25922); peptide 0.064 mg/mL + CuCl2 (0.9:1), 3 h, listed as WT calcitermin
  CFU decrease/increase with respect to untreated controls: -56%
E. coli (ATCC 25922); [5]
  mean CFU number ± S.D.: 360 ± 97 CFU
E. coli (ATCC 25922); [6]
  CFU decrease/increase with respect to untreated controls: -11%
  mean CFU number ± S.D.: 215 ± 17 CFU
E. coli (ATCC 25922); peptide 0.064 mg/mL + ZnCl2 (0.9:1), 3 h, listed as WT calcitermin
  CFU decrease/increase with respect to untreated controls: -55%
E. coli (ATCC 25922); [7]
  mean CFU number ± S.D.: 368 ± 18 CFU
E. coli (ATCC 25922); [8]
  CFU decrease/increase with respect to untreated controls: +3%
  mean CFU number ± S.D.: 249 ± 9 CFU
E. coli (ATCC 25922); peptide 0.128 mg/mL + CuCl2 (0.9:1), 3 h, listed as WT calcitermin
  CFU decrease/increase with respect to untreated controls: -91.1%
E. coli (ATCC 25922); [9]
  mean CFU number ± S.D.: 72 ± 44 CFU
E. coli (ATCC 25922); peptide 0.128 mg/mL + CuCl2 (0.9:1), 24 h, listed as WT calcitermin
  CFU decrease/increase with respect to untreated controls: -82%
E. coli (ATCC 25922); [10]
  mean CFU number ± S.D.: 42 ± 12 CFU
E. coli (ATCC 25922); [11]
  CFU decrease/increase with respect to untreated controls: -91%
E. coli (ATCC 25922); [12]
  mean CFU number ± S.D.: 74 ± 17 CFU
E. coli (ATCC 25922); [13]
  CFU decrease/increase with respect to untreated controls: -8%
  mean CFU number ± S.D.: 222 ± 16 CFU
E. coli (ATCC 25922); peptide alone 0.032 mg/mL, 3 h
  CFU decrease/increase with respect to untreated controls: -12%
  mean CFU number ± S.D.: 718 ± 138 CFU
E. coli (ATCC 25922); [14]
  CFU decrease/increase with respect to untreated controls: -7%
  mean CFU number ± S.D.: 224 ± 21 CFU
E. coli (ATCC 25922); peptide alone 0.064 mg/mL, 3 h
  CFU decrease/increase with respect to untreated controls: -19%
  mean CFU number ± S.D.: 659 ± 139 CFU
E. coli (ATCC 25922); [15]
  CFU decrease/increase with respect to untreated controls: +14%
  mean CFU number ± S.D.: 275 ± 16 CFU
E. coli (ATCC 25922); peptide alone 0.128 mg/mL, 3 h
  CFU decrease/increase with respect to untreated controls: +42%
  mean CFU number ± S.D.: 1155 ± 270 CFU
E. coli (ATCC 25922); [16]
  CFU decrease/increase with respect to untreated controls: -3%
  mean CFU number ± S.D.: 233 ± 10 CFU
